PMC3871595, “Structure Based Identification and Characterization of Flavonoids That Disrupt Human Papillomavirus-16 E6 Function” (PLoS ONE, 2013)
“Also recorded” adds a separate entry of the source.

Columns and labels:
MBP-E6 = biological target: T1, MBP-E6 (Human papillomavirus type 16, UniProt P03126); test: thermal shift (Sypro Orange) assay; type: binding, HPV-16; details: versus DMSO; for effect on Tm of MBP-E6: 5-150 µM tested
T1 construct: made in house; host or cells: E. coli BL21DE(3)
Protocol: A thermal shift assay was used to assess compound binding to HPV E6. In this reaction, protein denaturation is measured by an increase in fluorescence from Sypro Orange as it binds to the newly exposed hydrophobic surfaces on the protein [48]. A protein stability curve is created as a measure of the rate of protein unfolding. The relative fluorescence is plotted against temperature and the melting temperature (Tm) is determined by calculating the temperature of peak fluorescence. Ligand binding can stabilize the protein and increase the Tm. The thermal profile of MBP-E6 proteins was investigated to determine if the flavonoid derivatives could stabilize MBP-E6 protein structure during heat-induced unfolding. […] The change in Tm (∆Tm) was plotted for each compound and compared to DMSO (Figure 10F,G ).
MBP-16E6 DNA, a kind gift from G. Travé [58], was transformed into BL21DE(3) E. coli. Protein expression was performed by inoculation of a 1 mL starter culture in 100 mL of Turbo-Broth containing 0.2 % lactose, 0.05% glucose and 0.6% glycerol at 20°C for 24 hrs. Cells were lysed in 50 mM Tris HCl pH 6.8, 300 mM NaCl, 0.1 % (v/v) NP-40, 2 mM DTT and 1x protease inhibitor cocktail (EDTA-free, Roche) and sonicated as described before. Cell lysate was cleared by centrifugation at 15000xg, 4°C for 30 min and equilibrated with amylose resin beads (New England Biolabs, Inc.) by inversion for 3 hrs at 4°C. Bound beads were washed one time in lysis buffer and four times with wash buffer (50 mM Tris-HCl pH 6.8, 400 mM NaCl, 2 mM DTT, 1x protease inhibitor cocktail). Bound MBP-E6 proteins were eluted using a final concentration of 20 mM maltose in 5 bed volumes of wash buffer. All steps were performed at 4°C. Protein concentration was measured by BCA (BioRad). Thermostability of MBP-E6 proteins was analyzed at a final concentration of 1 µM in reaction buffer (50 mM TrisHCl pH 6.8, 400 mM NaCl, 2 mM DTT). MBP-E6 proteins were equilibrated with CAF-8 (5 µM-150 µM), CAF-24 (5 µM-150 µM), CAF-26 (5 µM-150 µM) or DMSO for 30 min in reaction buffer. Sypro Orange, a hydrophobic fluorescent dye, was added at the end of the incubation period at a final concentration of 5X. The final DMSO concentration (1.8% v/v) was kept constant across the concentration range. Fluorescence was measured using the FRET channel of CFX96 Real-Time PCR thermal cycler (BioRad) over a temperature range of 25°C to 95°C. Temperature increments were set to 0.5°C for 30 sec followed by plate reading. Melt curves were determined in triplicate and repeated four times. Melt curves represent the relative fluorescence of the 1st derivative of four experiments. Melting temperature (Tm) was calculated by CFX manager software. The average melting temperature of the triplicate was used to calculate the ∆Tm for each experiment. ∆Tm values are expressed as the change vs. DMSO.

p21^Cip1/Waf1 mRNA = test: p21 mRNA qRT-PCR; type: cell-based, human; details: relative to DMSO, normalized to GAPDH
Protocol: It is possible that the increased p53 and p21 levels resulted from non-specific inhibition of protein degradation. However, if the increase in p21 was dependent upon p53 promoter activation, it should be possible to detect changes in the amounts of p21 mRNA detected in treated cells. To confirm that the increase in p21 protein level resulted from p53 activation, the levels of p21 mRNA were analyzed using qRT-PCR.
Figure 6 Induction of p21^Cip1/Waf1 mRNA. Compounds were tested for the ability to induce p21^Cip1/Waf1 expression at the mRNA level. Relative increases in transcripts were determined by qRT-PCR. […] Fold induction was calculated in relation to treatment with DMSO and normalized to GAPDH. Data were analyzed using one-way ANOVA with post-hoc analysis (Dunnetts; S.E.M.; n=2). Statistical significance (p<0.01) is indicated as * in comparison to Caski control (DMSO), # E6/E7 HFK control (DMSO), § HFK control (DMSO), and ◙ for RPE-1 control (DMSO).
20,000 cells per cm^2 were plated in 6-well dishes. Cells were incubated for 24 hours at which time fresh media and compound were added. […] Protein quantification was performed with the Fujifilm LAS-4000 Multifunctional Imaging System. The signal intensity was measured for each band on an immunoblot, normalized to the loading control, and the fold increase was determined in relation to the appropriate DMSO treated control. […]

[1] = test system: Caski, HeLa, RPE-1, C33a and HaCat cells; test: cell number and morphology (bright field microscopy); type: cell-based, human; details: 72 hours
[2] = test system: primary human foreskin keratinocytes; test: p53/p21 immunoblot analysis in primary HFKs; type: cell-based; details: 40 hours
Protocol: Each compound was used to treat primary HFKs or HFKs immortalized through the over-expression of HPV16 E6 and E7 proteins.
20,000 cells per cm^2 were plated in 6-well dishes. Cells were incubated for 24 hours at which time fresh media and compound were added. After 40 hours, cells were harvested, washed with cold PBS, and lysed in RIPA buffer with protease inhibitor. Each sample was separated on a 12% SDS-page gel, transferred to Immobilon-P membrane (Millipore) and blotted for the p53 (DO-1, Santa Cruz), p21 (c-19, Santa Cruz), and actin (A2066, Sigma). Protein quantification was performed with the Fujifilm LAS-4000 Multifunctional Imaging System. The signal intensity was measured for each band on an immunoblot, normalized to the loading control, and the fold increase was determined in relation to the appropriate DMSO treated control. RNA was isolated from these cells using Trizol Reagent (Invitrogen 15596-026). cDNA was generated using the Improm-II Reverse Transcription System (Promega A3801). qPCR was performed as described in the protocol for SsoFast EvaGreen supermix (BioRad 172-5023) using an BioRad CFX96 real-time PCR machine. Melting curves for each reaction were obtained. Each sample was assayed in triplicate and every plate contained a 5-point cDNA dilution course to calculate amplification efficiency for each primer pair. The Pfaffl method was used to determine the change in transcript levels relative to the DMSO and normalized to GAPDH.

T1 sequence (P03126 whole entry): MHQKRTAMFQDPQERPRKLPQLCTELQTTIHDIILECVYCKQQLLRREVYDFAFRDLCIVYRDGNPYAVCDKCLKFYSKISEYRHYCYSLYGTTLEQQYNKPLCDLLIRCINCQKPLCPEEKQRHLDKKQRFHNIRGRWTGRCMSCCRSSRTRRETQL

SMILES	effect on Tm of MBP-E6 (MBP-E6)	shift of MBP-E6 Tm (MBP-E6; at 25, 50 and 150 µM) [°C]	p21 mRNA level (p21^Cip1/Waf1 mRNA)	number of cells per well [1]	cell morphology ([1]; luteolin @ 50µM)	p21 protein levels [2]	p53 protein levels [2]
COc1cccc(-c2cc(=O)c3cc(-c4nnn[nH]4)ccc3o2)c1 [CAF-24]	about 1 °C	~1	increase in p21 mRNA	decreased Caski and HeLa cell numbers	no change in cell morphology	little effect on p53 and p21 levels	little effect on p53 and p21 levels
O=c1cc(-c2ccc(O)c(O)c2)oc2cc(O)cc(O)c12 [luteolin, reference compound]	no effect on the Tm of MBP-E6; also recorded: did not shift the Tm of MBP-E6		increase in p21 mRNA	dramatic decrease in the number of cells per well		E6 independent increase in p53 and p21	E6 independent increase in p53 and p21
